The source of these data is PMC5962729 (Frontiers in Pharmacology, 2018).

A short description of series [1]: Identification of components and metabolites of YCHD in rat plasma, bile, urine and feces (UHPLC/Q-TOF-MS). The class given is in vivo. To be noted: rats, oral YCHD 12 g/kg, urine, feces. On the procedure:
After centrifuging at 4000 rpm for 10 min, supernatant plasma was harvested into heparinized tubes and then stored at -20°C for preservation. The rats in the second group (n = 6) were kept individually in metabolic cages to collect urine and feces. […] Subsequently, the rats were orally administered a single dose of YCHD (12 g/kg of body weight). […] For the third group of rats (n = 6), bile duct intubation was implemented, and blank bile samples were collected before administration. After the administration of YCHD at 12 g/kg of body weight, the drug-containing bile samples were collected.
Plasma, bile, and urine samples (200 μL each) were separately precipitated with six times of methanol–acetonitrile mixed solution (v/v, 1:1; containing 1% formic acid). After being vortex mixed for 5 min and centrifuged at 15,000 rpm for 5 min at 4°C, the supernatant was separated into another clean tube and dried under a gentle stream of nitrogen at 45°C. Subsequently, the residue was reconstituted in 100 μL of 50% methanol–water (v/v) and then vortex mixed for 10 min. After another round of centrifugation at 15,000 rpm for 5 min at 4°C, 5 μL of the supernatant was analyzed by UHPLC-MS/MS. A 0.5 g sample of naturally dried feces was supplemented with 2 mL of 80% methanol–water (v/v) and then ultrasonically extracted for 30 min at 4°C. After being centrifuged at 15,000 rpm for 10 min, the supernatant was dried under a gentle stream of nitrogen at 45°C. Finally, the residue was reconstituted in 1 mL of 50% methanol–water (v/v) and then vortex mixed for 10 min. After another round of centrifugation at 15,000 rpm for 5 min at 4°C, 5 μL of the supernatant sample was injected into the UHPLC-MS/MS system for analysis.
Separations were conducted on an Agilent SB-C18 column (2.1 mm × 50 mm, 1.8 μm) of a UHPLC/Q-TOF-MS system (Waters, Corp., Milford, MA, United States) maintained at 40°C.
A Synapt G2 quadrupole time-of-flight (Q/TOF) MS/MS system (Waters, Corp., Manchester, United Kingdom) equipped with an electrospray ionization (ESI) interface was operated in negative ionization mode and controlled by MassLynx software (Version 4.1). The optimized conditions for maximum detection of metabolites were as follows: the capillary voltage was set at 3.0 kV, extraction cone voltage was set at 10 and 15 V, source temperature was maintained at 120°C, and desolvation temperature was maintained at 450°C. […] An MS^E approach using a dynamic ramp of collision energy was also applied at two (low and high collision energies) scan functions. The following parameters were set: Function 1 (low energy)—mass scan range, 100–1000; scan time, 0.25 s; interscan delay, 0.05 s; collision energy, 4 V. Function 2 (high energy)—mass scan range, 100–1000; scan time, 0.2 s; interscan delay, 0.05 s; collision energy ramp, 10–30 V. Data were acquired using Masslynx^TM (Version 4.1. Waters, Crop., Milford, MA, United States), and Metabolynx^TM (Waters, Crop., Milford, MA, United States) was applied for post-acquisition data processing.

The nature of series [2]: Pharmacokinetic study of YCHD components and phase II metabolites in normal rats (UHPLC-MS/MS, sulfatase enzymolysis). In kind it is in vivo, rat. To be noted: for direct detection of the prototype in rat plasma after YCHD administration: before enzymolysis, transformed into phase II metabolites completely; for Tmax: po, 12 g/kg; for CL/F: read-out: CLz/F; for Vd/F: read-out: Vz/F. On the procedure: To explore the pharmacokinetic properties of YCHD following intragastric administration in rats, a rapid and sensitive method involving the use of UHPLC-MS/MS (Agilent 6460 series, Agilent Technologies, Santa Clara, CA, United States) was developed and validated for the simultaneous quantification of 10 active components of rat plasma. The quantification was conducted in ESI negative ionization mode, and the mass spectrometry conditions were as follows: capillary voltage, 3500 V; gas flow, 12 L/min; nebulizer, 40 psi; gas temperature, 350°C; and delta EMV (-), 400. A 5 μL extraction sample was injected into the column (Agilent SB-C18 column, 2.1 mm × 50 mm, 1.8 μm) and eluted at 0.4 mL/min with a gradient elution of water (with 0.4% v/v formic acid) (A) and acetonitrile (B) (0–3 min, 5–60% B; 3–5 min, 60–90% B; 5–5.1 min, 90–5% B; and re-equilibration for 3 min).
(§1) To each 50 μL plasma sample, 10 μL of internal standard solution (paeoniflorin, 1000 ng/mL) and 300 μL of a mixed solution of methanol and acetonitrile (v/v, 1:1; containing 1% formic acid) were added. Subsequently, the solution was vortex mixed for 5 min. After centrifugation at 15,000 rpm for 5 min, the supernatant was transferred completely into a tube, before being evaporated under N2 at 40°C. The residue was then dissolved in 50 μL of 50% methanol–water (v/v, 1:1) through vortexing for 5 min, after centrifugation at 15,000 rpm for 10 min. Finally, 5 μL of the supernatant sample was injected into the UHPLC-MS/MS system for analysis.
The rats were randomly divided into two groups (n = 5 for each group). […] After 24 h, the two groups of rats received a single oral dose of YCHD (12 g/kg). Blood was collected in heparinized tubes at 5, 15, 30, 45, 60, 120, 240, 360, 480, 720, and 1440 min after administration. The blood samples were centrifuged at 4000 rpm for 10 min, and the supernatant plasma was harvested. Plasma samples (50 μL) were immediately processed as outlined in Section “Chromatographic and Mass Spectrometry Conditions.”
(§2) Additional plasma samples (50 μL) were enzymatically hydrolyzed with 50 μL of enzyme solution (65.86 mg of sulfatase, dissolved in 2 mL of sodium acetate buffer, pH 5.0) for phase II metabolite quantification, in accordance with our previous study ([Ding et al., 2012]). After being vortex mixed for 5 min, the mixture was incubated at 37°C for 30 min and then returned to room temperature. Subsequently, the samples were processed as outlined in Section “Chromatographic and Mass Spectrometry Conditions” for UHPLC-MS/MS analysis. During routine analysis, each analytical run included six blank plasma samples, a set of calibration samples, a set of QC samples, and unknowns.
(§3) All data are presented as mean ± SD. A one-way analysis of variance was used to compare data between two groups using SPSS (Version 21.0). The differences were considered to be statistically significant when p < 0.05 and highly significant when p < 0.01 or p < 0.001. Pharmacokinetic data analysis was performed using DAS 2.1.1 software (Mathematical Pharmacology Professional Committee of China, Shanghai, China).
After sulfatase-aided enzymolysis, all the phase II metabolites could transform into their prototypes, including rhein, emodin, genipin, and capillarisin. The specific contents of the phase II metabolites of these components were detected indirectly by evaluating the content difference of their prototypes in samples after enzymolysis and before enzymolysis
(§4) CG = Ca −[MG × (CGG/MGG + CGe/MGe)]
Ca, CGG, and CGe represent the concentration of genipin, genipin-1-β-D-gentiobioside, and geniposide after enzymolysis of sulfatase, respectively. MG, MGG-, and MGe represent the mass of genipin, genipin-1-β-D-gentiobioside, and geniposide, respectively. The pharmacokinetic curves of phase II metabolites are illustrated in Figure 4B.

A short description of series [3]: Pharmacokinetic study of YCHD components and phase II metabolites in ANIT-induced cholestatic rats (UHPLC-MS/MS, sulfatase enzymolysis). In kind it is in vivo, rat. To be noted: for AUC(0-∞) / Ka: Model group (ANIT 50 mg/kg cholestatic rats); for AUC(0-∞) / Ka / Cmax / Tmax / CL/F / MRT inf / Vd/F / half-life: plasma; for Cmax / Tmax / CL/F / MRT inf / Vd/F / half-life: rat, po, 12 g/kg; for CL/F: read-out: CLz/F; for MRT inf: read-out: MRT (0-∞) (converted); for Vd/F: read-out: Vz/F; for half-life: read-out: t1/2z. On the procedure: To explore the pharmacokinetic properties of YCHD following intragastric administration in rats, a rapid and sensitive method involving the use of UHPLC-MS/MS (Agilent 6460 series, Agilent Technologies, Santa Clara, CA, United States) was developed and validated for the simultaneous quantification of 10 active components of rat plasma. The quantification was conducted in ESI negative ionization mode, and the mass spectrometry conditions were as follows: capillary voltage, 3500 V; gas flow, 12 L/min; nebulizer, 40 psi; gas temperature, 350°C; and delta EMV (-), 400.
as §1
The rats were randomly divided into two groups (n = 5 for each group). […] The blood samples were centrifuged at 4000 rpm for 10 min, and the supernatant plasma was harvested. Plasma samples (50 μL) were immediately processed as outlined in Section “Chromatographic and Mass Spectrometry Conditions.”
as §2, §3
The specific contents of the phase II metabolites of these components were detected indirectly by evaluating the content difference of their prototypes in samples after enzymolysis and before enzymolysis
as §4
Ca, CGG, and CGe represent the concentration of genipin, genipin-1-β-D-gentiobioside, and geniposide after enzymolysis of sulfatase, respectively. MG, MGG-, and MGe represent the mass of genipin, genipin-1-β-D-gentiobioside, and geniposide, respectively.

Where [4] appears, read: Control group (normal rats), single oral YCHD 12 g/kg, plasma.
Where [5] appears, read: Sprague Dawley, rat, plasma, in normal and cholestatic rats after oral administration of YCHD.
[6] abbreviates: rat, Control group (normal rats), single oral YCHD 12 g/kg, plasma.
Where [7] appears, read: Sprague Dawley, rat, Control group (normal rats), single oral YCHD 12 g/kg, plasma.

On to `Cc1cc(O)c2c(c1)C(=O)c1cc(OS(=O)(=O)O)cc(O)c1C2=O` [M7, Emodin-O-SO3], for which the “Source (biological samples in which the compound was identified)” value in series [1] is listed as “Plasma, urine, feces”.
Turning to `COC(=O)C1=CO[C@@H](O)[C@@H]2C(CO)=CC[C@H]12` [Genipin], the “direct detection of the prototype in rat plasma after YCHD administration” value (“direct detection of the prototype” below) in series [2] was “could not be detected directly”. Further, the “Source (biological samples in which the compound was identified)” value in series [1] was “Bile, urine, feces”.
The Tmax is the time from dosing to the highest level. As a reminder, the Cmax is the highest concentration seen after dosing. Turning to `O=C(/C=C/c1ccc(O)c(O)c1)O[C@@H]1C[C@](O)(C(=O)O)C[C@@H](O)[C@H]1O` [Chlorogenic acid], in series [2] (setting [4]), the “AUC(0-∞)” value worked out at 11559.2 ± 5248.0 µg·min/L and the Ka was 19.0 ± 16.288 min⁻¹. The Tmax in series [2] (setting [5]) was at most 27 min. In addition, the Tmax in series [2] (rat, plasma, Control group (normal rats), single oral YCHD 12 g/kg, plasma) was 15 min. For the same compound, in series [2] (setting [6]), the Cmax was determined as 33 ± 4.5 ng/mL, the CL/F was 1480 ± 921 mL/min/kg and the Vd/F was determined as 3800 ± 2060 L/kg. Besides, in series [3] (single oral YCHD 12 g/kg), the “AUC(0-∞)” value was 21437.2 ± 12572.8 µg·min/L and the Ka worked out at 38.945 ± 18.022 min⁻¹. Besides, in series [3], the Cmax is 78.9 ± 4.9 ng/mL, the Tmax is 27 min, the CL/F was determined as 1360 ± 523 mL/min/kg and the MRT inf is 1990 min. In addition, in series [3], the Vd/F came to 2110 ± 1660 L/kg and the half-life amounted to 1660 ± 2120 min.
For `COc1c(O)cc2oc(Oc3ccc(O)cc3)cc(=O)c2c1O` [Capillarisin], in series [2], the “direct detection of the prototype” value is on record as “could not be detected directly”. Further, the “Source (biological samples in which the compound was identified)” value in series [1] is on record as “Urine, feces”.
For the compound `CC(=O)c1ccc(OS(=O)(=O)O)cc1` [M6, 4-Hydroxyacetophenone-1-O-SO3], the “Source (biological samples in which the compound was identified)” value in series [1] was “Plasma, bile, urine, feces”.
On to `Cc1cc(O)c2c(c1)C(=O)c1cc(O)cc(O)c1C2=O` [Emodin], for which the “direct detection of the prototype” value in series [2] is “could not be detected directly”. In series [1], the “Source (biological samples in which the compound was identified)” value is on record as “Plasma, bile, urine, feces”.
For `O=C(O)/C=C/c1ccc(O)c(O)c1` [Caffeic acid], in series [2] (setting [4]), the “AUC(0-∞)” value came out at 63847.8 ± 53249.0 µg·min/L and the Ka was 119.2 ± 82.6 min⁻¹. In series [2] (Sprague Dawley, rat, plasma, Control group (normal rats), single oral YCHD 12 g/kg, plasma), the time to peak (Tmax) is 15 min. The Tmax in series [2] (setting [5]) is at most 27 min. In series [2] (setting [7]), the Cmax came to 286 ± 14.5 ng/mL and the CL/F was 445 ± 38 mL/min/kg. In addition, the MRT inf in series [2] (Sprague Dawley, rat, Control group (normal rats), single oral YCHD 12 g/kg, plasma, read-out: MRT (0-∞) (converted)) was 85.3 min. Moreover, the Vd/F in series [2] (setting [6]) was 35.7 ± 29.1 L/kg. For the same compound, the half-life in series [2] (rat, Control group (normal rats), single oral YCHD 12 g/kg, plasma, read-out: t1/2z) was determined as 56.3 ± 43 min. Also, in series [3] (single oral YCHD 12 g/kg), the “AUC(0-∞)” value came to 32651.4 ± 19640.7 µg·min/L; the Ka was found to be 75.2 ± 24.5 min⁻¹; the “AUC(0-∞) increased by, cholestatic model rats compared with normal rats” value was 191.3%; the “AUC(0-∞) reduced by, cholestatic model rats compared with normal rats” value was found to be 48.9%. Also, in series [3] (single oral YCHD 12 g/kg), the “Cmax increased by, cholestatic model rats compared with normal rats” value stood at 138.8% and the “Cmax reduced by, cholestatic model rats compared with normal rats” value is 72.4%. For the same compound, in series [3] (Sprague Dawley), the Cmax worked out at 78.9 ± 4.9 ng/mL, the Tmax is 24 min, the CL/F is 1190 ± 95 mL/min/kg and the MRT inf is 103 min. In series [3], the Vd/F was determined as 132 ± 39.7 L/kg and the half-life is 80.1 ± 27.5 min.
On to `COC(=O)C1=COC(OS(=O)(=O)O)C2C(CO)=CCC12` (stereo not shown) [M3, Genipin-1-O-SO3], for which the “Source (biological samples in which the compound was identified)” value in series [1] is given as “Bile, urine, feces”.
Same read-out and setting: for `COC(=O)C1=COC(OC2OC(C(=O)O)C(O)C(O)C2O)C2C(CO)=CCC12` (stereo not shown) [M2, Genipin-1-O-gluA] the value was “Plasma, bile, urine, feces”.
